Measurements: US9499484B2, “Indole, indoline derivatives, compositions comprising them and uses thereof” (priority 2012, dated 2016)
Structures can show the parent of a compound that is named as a salt. Where two headings read alike, the source gives them in different places.

How the values were obtained:
[1] = system: rat cardiac myoblasts (H9c2); experiment: Protection against H2O2-induced cell death in cardiomyocytes, Alamar Blue; type: cell-based; settings: concentration(s) giving >50% protection
Description: C. Measurement of Protective Activity Against Oxidative Stress in Cell Cultures
Compounds of the invention were tested for their potential to protect against cell death induced by oxidative stress in a cell line derived from rat cardiac myoblasts (H9c2) (Hescheler et al., 1991). Cells were cultured in Dulbecco's Modified Eagle's Medium (DMEM), 4500 mg/L D-glucose with 10% foetal calf serum (FCS), 10000 U/mL penicillin, […] streptomycin and 25 μg/mL Amphotericin B at 37° C. with 95% air and 5% CO2. One day prior to the measurement, cells were seeded in 96 well-plates at a density of 5,000 cells/well and incubated with 100 μM H2O2 for 1 h. […] Cells were incubated with different compounds of the invention in several concentrations ranging from 0.0001-100 μM, for 1, 4 or 7 h prior to addition of H2O2. Cell viability was measured by means of Alamar Blue (AbD Serotec, BUF012A). In order to compare the protective effect of the compounds this degree of cell death was normalized to 100% in each experiment. The effect of the drugs is expressed as percent reduction of this value.

[2] = Radical scavenging, glucose oxidase/luminol luminescence; type: biochemical; settings: concentration reducing luminescence/radical by 50%; mean ± SD, three independent experiments
Description: A. Measurement of Radical Scavenging
A mixture comprising glucose oxidase (GO), luminol, sodium selenite [IV] ([…]) and cobalt [II] (Co^+2) all in Hank's Balance Salt Solution (HBSS) was used (Ginsburg et al, 2004). The production of H2O2 produces a burst of luminescence within 30-60 sec, which lasts for 7-10 min. The luminescence involves oxidation of SEL+5 to it SEL+6 and also the generation of oxidants, which are catalyzed by Co^+2. This method mimics infection and inflammation conditions in which there is an accumulation of several oxidant species. This method provides a source of several radicals. Reduction in luminescence by the compounds is due to their ability to sequester radicals and was measured after addition of several concentrations of each compound. The concentration of each compound that reduced the luminescence by 50% was calculated.

[3] = target: T1, AChE (UniProt P23795); type: biochemical, human or bovine erythrocytes; settings: Table 3; 120 min incubation; read-out: IC50 AChE 120 min
T1 sequence (P23795 1-613): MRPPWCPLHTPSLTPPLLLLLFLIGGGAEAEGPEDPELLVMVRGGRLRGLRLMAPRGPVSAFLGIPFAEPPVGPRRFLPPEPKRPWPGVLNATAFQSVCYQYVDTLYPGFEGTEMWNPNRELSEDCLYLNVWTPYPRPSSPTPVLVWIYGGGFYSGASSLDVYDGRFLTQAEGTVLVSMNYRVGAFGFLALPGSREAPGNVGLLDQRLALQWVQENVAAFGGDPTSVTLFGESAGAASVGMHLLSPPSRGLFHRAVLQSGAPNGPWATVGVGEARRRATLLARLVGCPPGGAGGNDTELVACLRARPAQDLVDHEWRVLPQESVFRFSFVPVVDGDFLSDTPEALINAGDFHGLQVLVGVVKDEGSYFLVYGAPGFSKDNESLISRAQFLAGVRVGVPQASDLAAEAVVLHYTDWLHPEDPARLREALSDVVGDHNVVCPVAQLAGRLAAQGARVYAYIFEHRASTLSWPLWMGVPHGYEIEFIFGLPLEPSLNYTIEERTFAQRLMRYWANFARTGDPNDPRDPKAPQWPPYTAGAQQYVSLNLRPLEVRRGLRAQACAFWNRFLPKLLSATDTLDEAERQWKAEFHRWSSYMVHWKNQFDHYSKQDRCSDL
Description: (§1) B. Measurement of Acetylcholinesterase (AChE) and Butylcholinesterase (BuChE) Inhibition In Vitro
(§2) The enzyme was incubated at 37° C. with 6-10 concentrations of the compounds tested and samples were collected at 15, 30, 60 and 120 min Aliquots were transferred to an Elisa multiscan microplate reader (Labsystems) at 15-60 sec time intervals for the determination of residual AChE activity, with Ascent PC software. […] The % inhibition of AChE by each concentration was calculated by comparison with the activity of the enzyme in the absence of drug. […] BuChE-inhibitory activity was determined as described above using BuChE (Sigma Israel) with butylthiocholine iodide (BuTh) 0.075M as a substrate.

[4] = target: T2, BuChE (UniProt P81908); type: biochemical, human or equine serum; settings: read-out: IC50 BuChE 120 min; Table 3; 120 min incubation
T2 construct: 120 min incubation; BuChE IC50
Description: as §1, §2

[5] = system: TNF-α, BV2 mouse microglial cells; experiment: TNF-α reduction in LPS-stimulated BV2 microglia; type: cell-based; settings: for Reduction in TNF-α levels, BV2 Microglia range: concentration range, None = no reduction up till 100 nM
Description: (§3) The BV2 mouse microglial cells were created by infecting primary mouse microglia with v-raf/v-myc oncogen-carrying retrovirus and donated by Dr. Sigal Fleisher—Berkovich (Ben-Gurion University of the Negev). The cells were cultured in RPMI 1640 containing 0.4 mM L-Glutamine, 10% FCS, 100 units/ml penicillin, 100 μg/ml streptomycin and maintained in a humidified incubator at 37° C. with 5% CO2. For measurement of the effect of compounds on the release of NO the cells were seeded in a density of 80,000 cells/ml and confluence of about 60%, and incubated with test compounds (in the absence of FCS) for […] All the medium was removed and fresh medium containing FCS and LPS (10 μg/ml) added and the cells maintained at 37° C. for 24 h. The release of NO into the medium was determined by measurement of nitrite levels using Griess reagent reaction. For measurement of protein levels of cytokines cells were seeded in a density of 80,000 and incubated with test compounds (in the absence of FCS) and then with LPS as described above. The medium was centrifuged and supernatants collected after 6 h for TNF-α (Biolegend) and after 20 h for IL-6 (Biolegend).

[6] = system: NO, BV2 mouse microglial cells; experiment: NO reduction in LPS-stimulated BV2 microglia; type: cell-based; settings: for Reduction in NO levels by at >20%, BV2 Microglia range: concentration range, None = no reduction up till 100 nM
Description: as §3

[7] = system: NO, RAW 264.7 cells; experiment: NO reduction in LPS-stimulated RAW 264.7 macrophages; type: cell-based, mouse
[8] = system: TNF-α, RAW 264.7 cells; experiment: TNF-α reduction in LPS-stimulated RAW 264.7 macrophages; type: cell-based, mouse
[9] = system: ChE (AChE, BuChE) in plasma, muscle, spleen, brain; settings: for ChE inhibition in plasma, muscle, and spleen: after ip and or oral administration in mice
Description: E. Acetylcholinesterase (AChE) and Butylcholinesterase (BuChE) Inhibition Ex Vivo
Compounds of the invention or saline were administrated by intraperitoneal (ip) injection or gavage to groups of 6-7 male ICR or Balb C mice (5-6 weeks of age). The mice were sacrificed 15, 30, 60 or 120 min after drug administration and the brain (minus cerebellum), spleen, and muscle were rapidly removed, weighed and put on ice. Blood was also collected in heparinised tubes, centrifuged at 14000 rpm at room temperature for 4 mM to provide plasma. Phosphate buffer pH 7 was added to each tissue to produce concentrations of 1 mg/mL for brain and spleen and 8 mg/mL for muscle. The tissues were homogenised in cold phosphate buffer pH 7 containing 0.1% Triton and centrifuged at 14000 rpm. Aliquots of plasma and the supernatant of all tissues were incubated with AcTh or BuTh and DTNB in phosphate buffer pH 7 and the rate of development of the yellow colour was measured as described above. Enzyme activity was measured for each time and drug concentration and percent inhibition of the AChE or BuChE activity was calculated by comparison with that of control mice injected with saline. Results are represented as p moles acetylthiocholine or butythiocholine hydrolysed/min/gm tissue.

[10] = Radical scavenging, Sin1; type: biochemical; settings: mean ± SD, three independent experiments
[11] = Mus musculus, RAW264.7, 24 h, read-out: Reduction in NO levels, RAW Macrophages % peak reduction
[12] = concentration range; None = no reduction up till 100 nM
[13] = Mus musculus, RAW264.7, 6 h, read-out: Reduction in TNF-α levels, RAW Macrophages % peak reduction
[14] = cells in μM, no effect ≦ 100 μM given as >100

CCCCN(C)C(=O)Oc1ccc2c(c1)NCC2CCC(=O)OC (stereo not drawn) [AN-677, 3-(2-(Methoxycarbonyl)ethyl)-1-indoline-6-yl butylmethylcarbamate hydrochloride]
Cardiomyocte cell line Conc′ >50% protection H2O2 Alamar blue ([1]; cells in nM): 1 to 10 nM | IC50 [2]: 24.1 ± 0.18 µM | IC50 [3]: 62.3 µM | IC50 [4]: 404 µM

CCN(C)C(=O)Oc1ccc2c(c1)NCC2CCC(=O)O (stereo not drawn) [AN-681, 3-(6-(Ethyl(methyl)carbamoyloxy)indolin-3-yl) propanoic acid hydrochloride]
Reduction in TNF-α levels, BV2 Microglia range [5]: None | Reduction in NO levels by at >20%, BV2 Microglia range [6]: None | Emax [7, 11]: 50.1 ± 4.1% | Reduction in NO levels by at >20%, RAW Macrophages range [7, 12]: 10^−1-100 nM | IC50 [2]: 1.14 ± 0.09 µM | Emax [8, 13]: 29.2 ± 5.6% | Reduction in TNF-α levels, RAW Macrophages range [8, 12]: 0.1 to 100 nM | IC50 [4]: 10 µM

COC(=O)CCC1CNc2cc(OC(=O)N(C)c3ccc(OC)cc3)ccc21 (stereo not drawn) [AN-685, Methyl 3-(6-((4-methoxyphenyl)(methyl)carbamoyloxy)indolin-3-yl)propanoate hydrochloride]
Cardiomyocte cell line Conc′ >50% protection H2O2 Alamar blue ([1]; cells in nM): 0.001 to 0.1 nM | IC50 [2]: 3.41 ± 0.02 µM | IC50 [4]: 54 µM

COC(=O)CCC1CN(C)c2cc(OC(=O)N(C)c3ccc(OC)cc3)ccc21 (stereo not drawn) [AN-687, Methyl 3-(6-((4-methoxyphenyl)(methyl)carbamoyloxy)-1-methylindolin-3-yl)propanoate hydrochloride]
Cardiomyocte cell line Conc′ >50% protection H2O2 Alamar blue [1, 14]: 100 to 10000 nM | IC50 [2]: 2.24 ± 0.03 µM | IC50 [4]: 372 µM

CCCCN(C)C(=O)Oc1ccc2c(c1)N(C)CC2CCC(=O)OC (stereo not drawn) [AN-691, Methyl 3-(6-(butyl(methyl)carbamoyloxy)-1-methylindolin-3-yl)propanoate hydrochloride]
Cardiomyocte cell line Conc′ >50% protection H2O2 Alamar blue [1, 14]: 100000 nM | IC50 [2]: 6.27 ± 0.05 µM | IC50 [4]: 66.8 µM

COC(=O)CCC1CNc2cccc(OC(=O)N(C)c3ccc(OC)cc3)c21 (stereo not drawn) [AN-819, 3-(3-methoxy-3-oxopropyl)-4-(((4-methoxyphenyl)(methyl)carbamoyl)oxy) indolin-1-ium hydrochloride]
Cardiomyocte cell line Conc′ >50% protection H2O2 Alamar blue ([1]; cells in nM): 0.001 to 1 nM | ChE inhibition in plasma, muscle, and spleen [9]: inhibited ChE | IC50 [2]: 19 ± 0.6 µM | IC50 [10]: 3.18 ± 0.2 µM | IC50 [4]: 4.6 µM

COC(=O)CCC1CNc2cccc(O)c21 (stereo not drawn) [AN-832, Methyl 3-(4-hydroxyindolin-3-yl)propanoate hydrochloride]
Reduction in TNF-α levels, BV2 Microglia % peak reduction [5]: 38.2 ± 3.2% | Reduction in TNF-α levels, BV2 Microglia range [5]: 10^−1-100 nM | Reduction in NO levels by at >20%, BV2 Microglia range [6]: None | Emax ([7]; Mus musculus, RAW264.7, 24 h; read-out: Reduction in NO levels, RAW Macrophages % peak reduction): 46.1 ± 3% | IC50 [2]: 0.67 ± 0.05 µM | IC50 [10]: 3.54 ± 0.21 µM | inhibition of the level of TNF-α induced in RAW cells by LPS (FIG. 3) [8]: inhibition | Emax ([8]; Mus musculus, RAW264.7, 6 h; read-out: Reduction in TNF-α levels, RAW Macrophages % peak reduction): 39.2 ± 2.6%

COC(=O)CCC1CN(C)c2cccc(O)c21.Cl (stereo not drawn) [AN-833, Methyl 3-(4-hydroxy-1-methylindolin-3-yl)propanoate hydrochloride]
Cardiomyocte cell line Conc′ >50% protection H2O2 Alamar blue [1, 14]: no effec ≦ 100 μM | IC50 [2]: 0.45 ± 0.03 µM

O=C(O)CCC1CNc2cccc(O)c21 (stereo not drawn) [AN-834, 3-(4-hydroxyindolin-3-yl)propanoic acid hydrochloride]
Cardiomyocte cell line Conc′ >50% protection H2O2 Alamar blue ([1]; cells in nM): 0.1 to 10 nM | IC50 [2]: 1.44 ± 0.04 µM

CCN(C)C(=O)Oc1cccc2c1C(CCC(=O)O)CN2 (stereo not drawn) [AN-850, hydrochloride]
Reduction in TNF-α levels, BV2 Microglia % peak reduction [5]: 30.5 ± 0.6% | Reduction in TNF-α levels, BV2 Microglia range [5]: 10^−3-100 nM | Reduction in NO levels, BV2 Microglia % peak reduction [6]: 37.6 ± 5.0% | Reduction in NO levels by at >20%, BV2 Microglia range [6]: 10^−2-100 nM | ChE inhibition in plasma, muscle, and spleen [9]: inhibited ChE | IC50 [2]: 1.59 ± 0.39 µM | IC50 [3]: 19 µM | Reduction in TNF-α levels, RAW Macrophages range [8, 12]: None | IC50 [4]: 0.3 µM

CCOC(=O)CCC1CNc2cccc(OC(=O)N(C)CC)c21.O=C(O)CC(O)(CC(=O)O)C(=O)O (stereo not drawn) [AN-871]
Cardiomyocte cell line Conc′ >50% protection H2O2 Alamar blue [1, 14]: no effect ≦ 100 μM

CCN(C)C(=O)Oc1cccc2[nH]cc(CCN)c12.Cl [AN-886, 2-(4-((ethyl(methyl)carbamoyl)oxy)-1H-indol-3-yl)ethanaminium hydrochloride]
Cardiomyocte cell line Conc′ >50% protection H2O2 Alamar blue [1, 14]: no effect ≦ 100 μM

CCN(C)C(=O)Oc1cccc2c1C(CCN)CN2 (stereo not drawn) [AN-890, 3-(2-Aminoethyl)indolin-4-yl ethyl(methyl)carbamate dihydrochloride]
Reduction in TNF-α levels, BV2 Microglia range [5]: None | Reduction in NO levels by at >20%, BV2 Microglia range [6]: None | Emax [7, 11]: 54.6 ± 2.3% | ChE inhibition in plasma, muscle, and spleen [9]: inhibited ChE | ChE inhibition in skeletal muscle ([9]; mice, 1 mg/kg): little or no effect | ChE inhibition in plasma and spleen ([9]; mice, 1 mg/kg, ip and oral, 30 to 120 min): inhibited ChE in plasma and spleen equally well after ip and oral administration | IC50 [2]: 0.07 ± 0.01 µM | IC50 [10]: 2.13 ± 0.18 µM | inhibition of the level of TNF-α induced in RAW cells by LPS (FIG. 3) [8]: inhibition | Emax [8, 13]: 36.6 ± 4.1% | IC50 [4]: 0.2 µM
